ChEMBL document CHEMBL1201862, “PubChem BioAssay data set” (2004)
Activity calls are given as the source filed them.

Key:
[1] = target: T1, Voltage-gated N-type calcium channel alpha-1B subunit/Amyloid beta A4 precursor protein-binding family A member 1 (Homo sapiens, UniProt Q00975+Q02410); type: protein assay
[2] = target: T1, Voltage-gated N-type calcium channel alpha-1B subunit/Amyloid beta A4 precursor protein-binding family A member 1; type: protein assay; remark: listed apart in the source
[3] = Trypanosoma cruzi growth suppression in host cells – NIH3T3 host cells, beta-gal luminescence, confirmation (AID 2044); type: functional, cell-based;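 further: intracellular parasites grown in NIH/3T3 mouse fibroblasts as host cells; luminescent beta-galactosidase reporter signal from transgenic T. cruzi replicating inside host cells; inhibitors lower the luminescence signal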
[4] = NIH3T3 cell viability loss – ATP luminescence, mouse fibroblasts, counter-screen, dose response (AID 2010); type: functional, cell-based;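 further: cells exposed to compound for about 90 hours before reading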
Exodeoxyribonuclease V = Exodeoxyribonuclease V (Escherichia coli (strain K12), UniProt P04993+P07648+P08394); assay: RecBCD inhibition via phage-restricted bacterial growth – absorbance, V66 E. coli, mutant T4 phage, counter-screen for AddAB inhibitor project, dose response (AID 492957); type: functional, cell-based, Escherichia coli str. K-12 substr. MG1655
[5] = Counterscreen for AddAB inhibitors: absorbance-based bacterial cell-based high throughput dose response assay for inhibitors of bacterial viability. [Related pubchem assays (depositor defined):AID435030, AID449728, AID449731, AID488942, AID488955, AID488956]; type: functional
Vero = assay: cells; type: functional; details: Chlorocebus sabaeus
Ephrin type-A receptor 4 = Ephrin type-A receptor 4 (Mus musculus, UniProt Q03137); assay: EphA4 ligand-binding antagonists – biochemical, colorimetric, mouse EphA4, primary screen (AID 689); type: functional
HeLa = assay: viability loss in HeLa cells – cell-based, 24 h, cherry-picked samples, cytotoxicity control, dose response (AID 504726); type: functional; details: Homo sapiens;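 further: potency for cytotoxicity as loss of luminescence signal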
ORF 73 = ORF 73 (Human herpesvirus 8, UniProt O40947); assay: KSHV LANA DNA-binding disruption – biochemical, fluorescence polarization, cherry-picked samples, dose response (AID 504725); design: species or system Human gammaherpesvirus 8;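 further: fluorescence polarization of a labeled DNA duplex reporting LANA DNA binding; potency is for inhibitors that block LANA binding to the DNA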
Sequence of ORF 73 (O40947 whole entry): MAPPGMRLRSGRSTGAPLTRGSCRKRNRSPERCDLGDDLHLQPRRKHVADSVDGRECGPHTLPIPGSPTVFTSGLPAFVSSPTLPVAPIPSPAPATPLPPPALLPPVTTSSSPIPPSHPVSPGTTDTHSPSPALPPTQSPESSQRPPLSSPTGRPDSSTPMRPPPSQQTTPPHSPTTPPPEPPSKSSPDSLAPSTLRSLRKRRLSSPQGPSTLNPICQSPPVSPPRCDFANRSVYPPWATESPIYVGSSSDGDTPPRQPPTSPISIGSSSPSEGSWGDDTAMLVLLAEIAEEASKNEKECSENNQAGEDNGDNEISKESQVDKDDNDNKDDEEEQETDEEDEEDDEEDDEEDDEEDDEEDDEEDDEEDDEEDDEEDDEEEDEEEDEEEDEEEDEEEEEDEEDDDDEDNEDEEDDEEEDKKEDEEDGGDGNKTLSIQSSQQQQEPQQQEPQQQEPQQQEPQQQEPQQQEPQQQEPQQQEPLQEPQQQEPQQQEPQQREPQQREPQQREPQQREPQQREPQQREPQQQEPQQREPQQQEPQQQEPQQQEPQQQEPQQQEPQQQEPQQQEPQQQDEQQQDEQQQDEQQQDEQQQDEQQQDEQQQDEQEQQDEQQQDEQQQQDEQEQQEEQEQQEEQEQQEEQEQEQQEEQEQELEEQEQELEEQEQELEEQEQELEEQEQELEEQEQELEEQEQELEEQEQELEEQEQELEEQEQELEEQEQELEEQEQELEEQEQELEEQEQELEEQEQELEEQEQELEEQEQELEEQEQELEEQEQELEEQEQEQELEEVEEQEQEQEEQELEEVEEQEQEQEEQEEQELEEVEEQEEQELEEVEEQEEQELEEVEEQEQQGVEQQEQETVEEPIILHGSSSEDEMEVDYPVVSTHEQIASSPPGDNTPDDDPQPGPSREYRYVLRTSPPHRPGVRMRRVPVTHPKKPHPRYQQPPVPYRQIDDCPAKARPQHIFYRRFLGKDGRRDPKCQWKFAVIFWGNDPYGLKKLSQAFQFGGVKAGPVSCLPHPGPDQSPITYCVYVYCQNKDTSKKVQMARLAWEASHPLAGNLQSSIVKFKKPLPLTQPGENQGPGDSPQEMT

[6] = target: UDP-galactopyranose mutase (Mycobacterium tuberculosis, UniProt P9WIQ1); assay: Inhibitors of Mycobacterium tuberculosis UDP-galactopyranose mutase (UGM) enzyme Measured in Biochemical System Using Plate Reader - 2105-02_Inhibitor_Dose_CherryPick_Activity. [Related pubchem assays (depositor defined):AID504439]
Sequence of UDP-galactopyranose mutase (P9WIQ1 whole entry): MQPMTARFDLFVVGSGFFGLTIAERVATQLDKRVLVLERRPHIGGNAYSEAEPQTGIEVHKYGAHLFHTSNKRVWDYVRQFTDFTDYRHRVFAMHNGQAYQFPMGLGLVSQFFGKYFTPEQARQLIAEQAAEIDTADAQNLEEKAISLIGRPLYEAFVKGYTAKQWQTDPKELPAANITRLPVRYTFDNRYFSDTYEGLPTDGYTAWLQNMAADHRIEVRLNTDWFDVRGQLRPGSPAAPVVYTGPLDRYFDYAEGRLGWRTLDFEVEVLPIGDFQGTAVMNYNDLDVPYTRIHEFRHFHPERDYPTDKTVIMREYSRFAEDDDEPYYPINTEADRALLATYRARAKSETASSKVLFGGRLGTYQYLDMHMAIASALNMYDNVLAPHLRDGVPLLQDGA

[7] = target: T2, Corticotropin-releasing factor receptor 2/Corticotropin-releasing factor-binding protein (Homo sapiens, UniProt P24387+Q13324); assay: activators of CRF receptor 2 with binding protein – uHTS hits, confirmation (AID 602473); type: functional; details: read-out: EC50_Mean
T2 sequence (Q13324 whole entry): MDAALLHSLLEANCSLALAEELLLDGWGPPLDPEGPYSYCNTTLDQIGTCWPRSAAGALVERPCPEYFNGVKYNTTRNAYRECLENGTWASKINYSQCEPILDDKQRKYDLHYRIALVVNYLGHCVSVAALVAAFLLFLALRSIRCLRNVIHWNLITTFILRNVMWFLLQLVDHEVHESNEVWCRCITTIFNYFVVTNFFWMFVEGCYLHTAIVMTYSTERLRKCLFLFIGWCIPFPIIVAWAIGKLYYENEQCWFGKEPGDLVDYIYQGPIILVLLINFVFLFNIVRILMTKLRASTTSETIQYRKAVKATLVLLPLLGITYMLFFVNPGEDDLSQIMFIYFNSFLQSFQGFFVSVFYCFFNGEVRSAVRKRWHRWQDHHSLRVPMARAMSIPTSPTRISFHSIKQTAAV
T2 sequence (P24387 whole entry): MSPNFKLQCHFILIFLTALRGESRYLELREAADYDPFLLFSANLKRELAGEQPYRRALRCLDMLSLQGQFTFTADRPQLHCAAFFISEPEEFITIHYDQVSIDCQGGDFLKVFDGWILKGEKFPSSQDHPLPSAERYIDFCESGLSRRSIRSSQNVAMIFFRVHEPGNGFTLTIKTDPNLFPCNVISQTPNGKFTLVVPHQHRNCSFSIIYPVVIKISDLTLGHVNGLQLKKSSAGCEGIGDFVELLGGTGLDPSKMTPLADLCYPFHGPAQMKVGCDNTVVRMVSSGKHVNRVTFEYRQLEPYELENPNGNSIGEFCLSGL

[8] = target: Voltage-dependent T-type calcium channel subunit alpha-1H (Homo sapiens, UniProt O95180); assay: inhibition of CACNA1H calcium flux – cell-based, SynthLib3 library, HEK293 Cav3.2, fluorescence (AID 493041); type: functional
Trypsin = Trypsin (Sus scrofa, UniProt P00761); assay: trypsin protease activity blockade – biochemical, quenched peptide fluorescence, cherry-pick, selectivity assay for Rce1 protease inhibitor project, dose response (AID 488789)
CAAX prenyl protease 1 = CAAX prenyl protease 1 (Saccharomyces cerevisiae S288c, UniProt P47154); assay: yeast CAAX protease Ste24 inhibition – biochemical, S. cerevisiae, plate reader, cherry-pick, dose response (AID 488815)
CAAX prenyl protease 2 = target: T3, CAAX prenyl protease 2 (Homo sapiens, UniProt Q9Y256); assay: inhibition of Ras-converting CAAX protease Rce1 – biochemical, yeast membranes, quenched-peptide fluorescence, cherry-pick, dose response (AID 588849)
T3 sequence (Q9Y256 whole entry): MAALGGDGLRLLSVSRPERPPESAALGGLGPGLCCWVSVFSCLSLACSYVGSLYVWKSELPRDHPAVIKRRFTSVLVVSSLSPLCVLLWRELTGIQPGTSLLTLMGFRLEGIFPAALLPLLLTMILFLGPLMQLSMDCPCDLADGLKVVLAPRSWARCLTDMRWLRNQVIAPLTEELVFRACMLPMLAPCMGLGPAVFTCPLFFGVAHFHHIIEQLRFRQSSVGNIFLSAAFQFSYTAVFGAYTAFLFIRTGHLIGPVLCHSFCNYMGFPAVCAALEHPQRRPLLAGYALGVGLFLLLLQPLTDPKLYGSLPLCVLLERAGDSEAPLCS

[9] = target: T4, Mannose-6-phosphate isomerase (Homo sapiens, UniProt P34949); assay: phosphomannose isomerase inhibition – biochemical, fluorescence intensity, confirmation (AID 1535)
T4 sequence (P34949 whole entry): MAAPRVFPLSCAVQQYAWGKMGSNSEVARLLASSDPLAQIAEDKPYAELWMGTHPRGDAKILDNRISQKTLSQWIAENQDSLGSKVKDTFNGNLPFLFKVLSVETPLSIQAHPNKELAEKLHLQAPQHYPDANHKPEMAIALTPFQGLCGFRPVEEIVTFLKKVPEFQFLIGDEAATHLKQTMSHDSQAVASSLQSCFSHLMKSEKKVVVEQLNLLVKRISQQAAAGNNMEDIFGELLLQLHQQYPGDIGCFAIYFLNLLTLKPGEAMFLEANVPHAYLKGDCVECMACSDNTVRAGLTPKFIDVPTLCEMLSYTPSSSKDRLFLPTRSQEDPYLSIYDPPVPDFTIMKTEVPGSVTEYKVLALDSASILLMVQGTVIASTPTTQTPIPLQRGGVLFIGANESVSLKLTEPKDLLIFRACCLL

Phosphomannomutase 2 = Phosphomannomutase 2 (Homo sapiens, UniProt O15305); assay: Counter screen SAR assay for PMM2 inhibitors via a fluorescence intensity assay. [Related pubchem assays (depositor defined):AID1545, AID1574]
Sequence of Phosphomannomutase 2 (O15305 whole entry): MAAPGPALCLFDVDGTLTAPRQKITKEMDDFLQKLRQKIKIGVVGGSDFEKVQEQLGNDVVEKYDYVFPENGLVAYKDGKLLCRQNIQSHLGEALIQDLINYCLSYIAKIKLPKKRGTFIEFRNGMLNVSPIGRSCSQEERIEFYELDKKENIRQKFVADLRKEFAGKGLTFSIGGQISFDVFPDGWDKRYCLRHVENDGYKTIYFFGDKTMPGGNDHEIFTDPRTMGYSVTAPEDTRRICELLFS

[10] = target: G-protein coupled receptor 35 (Homo sapiens, UniProt Q9HC97); assay: SAR Analysis for the identification of Selective Antagonists of ERK1/2 Activity in GPR35-Overexpressing U2OS Cells. [Related pubchem assays: 2079, 2058 ]; type: functional, cell-based
[11] = target: Tyrosine-protein phosphatase non-receptor type 12 (Homo sapiens, UniProt Q05209); assay: SAR Selectivity Analysis of small molecule inhibitors of PEST using pCAP in a fluorescence assay. [Related pubchem assays (depositor defined):AID1779, AID1784, AID2135]; type: functional
[12] = target: T5, Tyrosine-protein phosphatase non-receptor type 22 (Homo sapiens, UniProt Q9Y2R2); assay: SAR LYP1 Fluorescent Assay using OMFP substrate for In Vitro dose response studies - Set 3. [Related pubchem assays (depositor defined):AID1779, AID1784, AID2140, AID2686]; type: functional
T5 sequence (Q9Y2R2 whole entry): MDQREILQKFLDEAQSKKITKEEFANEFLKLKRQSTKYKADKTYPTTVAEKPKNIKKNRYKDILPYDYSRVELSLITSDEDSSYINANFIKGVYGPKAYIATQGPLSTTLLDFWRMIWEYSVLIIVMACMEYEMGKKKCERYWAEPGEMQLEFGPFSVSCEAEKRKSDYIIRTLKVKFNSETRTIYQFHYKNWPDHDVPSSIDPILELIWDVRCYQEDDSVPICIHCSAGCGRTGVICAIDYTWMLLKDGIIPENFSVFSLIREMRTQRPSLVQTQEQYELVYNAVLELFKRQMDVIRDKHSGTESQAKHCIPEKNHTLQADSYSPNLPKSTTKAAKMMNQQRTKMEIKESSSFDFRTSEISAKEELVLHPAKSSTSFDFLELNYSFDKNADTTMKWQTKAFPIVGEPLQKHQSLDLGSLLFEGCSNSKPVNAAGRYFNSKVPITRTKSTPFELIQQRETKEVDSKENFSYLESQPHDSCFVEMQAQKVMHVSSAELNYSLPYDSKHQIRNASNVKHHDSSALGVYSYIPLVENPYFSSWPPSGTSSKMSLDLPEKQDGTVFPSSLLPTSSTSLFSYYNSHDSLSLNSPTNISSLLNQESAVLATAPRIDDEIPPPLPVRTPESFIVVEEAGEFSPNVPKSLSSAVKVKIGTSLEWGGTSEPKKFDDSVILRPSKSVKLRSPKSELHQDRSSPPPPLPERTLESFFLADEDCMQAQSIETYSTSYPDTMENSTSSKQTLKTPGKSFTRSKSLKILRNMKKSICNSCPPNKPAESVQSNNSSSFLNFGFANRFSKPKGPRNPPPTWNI

[13] = target: T6, Tyrosine-protein phosphatase non-receptor type 7 (Homo sapiens, UniProt P35236); assay: inhibition of hematopoietic tyrosine phosphatase HePTP – biochemical, set 2, SAR follow-up (AID 449736); type: functional
T6 sequence (P35236 whole entry): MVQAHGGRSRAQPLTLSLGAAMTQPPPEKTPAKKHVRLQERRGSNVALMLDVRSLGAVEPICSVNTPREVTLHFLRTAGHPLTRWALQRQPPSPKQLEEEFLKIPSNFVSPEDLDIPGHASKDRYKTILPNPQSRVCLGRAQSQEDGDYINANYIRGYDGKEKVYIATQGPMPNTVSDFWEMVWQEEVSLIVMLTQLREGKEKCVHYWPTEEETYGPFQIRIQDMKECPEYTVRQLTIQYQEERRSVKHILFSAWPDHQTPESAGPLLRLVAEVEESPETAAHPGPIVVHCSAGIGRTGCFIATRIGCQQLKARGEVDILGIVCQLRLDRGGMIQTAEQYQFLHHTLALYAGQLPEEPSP

[14] = target: T5, Tyrosine-protein phosphatase non-receptor type 22; assay: inhibition of lymphoid tyrosine phosphatase LYP – biochemical, pCAP fluorogenic substrate, fluorescence, set 3, SAR follow-up (AID 449727); type: functional
[15] = target: G-protein coupled receptor 55 (Homo sapiens, UniProt Q9Y2T6); assay: blockers of GPR55 signalling, imaged – imaging, image-based, counter-screen for GPR35 antagonist project, SAR follow-up (AID 2397); type: functional
HEK293 [16] = assay: inhibition of NOD1-driven NF-kB reporter – cell-based, luminescence, uHTS, primary screen (AID 1578); type: functional; details: Homo sapiens
HEK293 [17] = assay: cells; type: functional, cell-based; details: Homo sapiens
HEK293 [18] = assay: cells; type: functional, cell-based; details: Homo sapiens; remark: listed apart in the source
HEK293 [19] = assay: NOD2 signaling inhibitors in MDP-stimulated cells, cell-based, uHTS, luminescence (AID 2001); type: functional; details: Homo sapiens
[20] = target: Nucleotide-binding oligomerization domain-containing protein 1 (Homo sapiens, UniProt Q9Y239); assay: blockers of NOD1 pathway activity – revised, SAR follow-up (AID 2333); type: functional
[21] = target: T2, Corticotropin-releasing factor receptor 2/Corticotropin-releasing factor-binding protein; assay: Dose Response confirmation of uHTS hits for small molecule antagonists of the CRF-binding protein and CRF-R2 receptor complex.; type: functional; details: read-out: IC50_Mean
[22] = blockers of CRF-binding protein–CRF-R2 complex – cell-based, uHTS hits, 384-well, dose response (AID 651639); type: functional, Homo sapiens; details: read-out: IC50_Mean
HEK293 [23] = assay: cells; details: Homo sapiens
Cytochrome P450 2D6 = Cytochrome P450 2D6 (Homo sapiens, UniProt P10635);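 further: CYP2D6 member of a cytochrome P450 panel assay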

T1 sequence (Q00975 whole entry): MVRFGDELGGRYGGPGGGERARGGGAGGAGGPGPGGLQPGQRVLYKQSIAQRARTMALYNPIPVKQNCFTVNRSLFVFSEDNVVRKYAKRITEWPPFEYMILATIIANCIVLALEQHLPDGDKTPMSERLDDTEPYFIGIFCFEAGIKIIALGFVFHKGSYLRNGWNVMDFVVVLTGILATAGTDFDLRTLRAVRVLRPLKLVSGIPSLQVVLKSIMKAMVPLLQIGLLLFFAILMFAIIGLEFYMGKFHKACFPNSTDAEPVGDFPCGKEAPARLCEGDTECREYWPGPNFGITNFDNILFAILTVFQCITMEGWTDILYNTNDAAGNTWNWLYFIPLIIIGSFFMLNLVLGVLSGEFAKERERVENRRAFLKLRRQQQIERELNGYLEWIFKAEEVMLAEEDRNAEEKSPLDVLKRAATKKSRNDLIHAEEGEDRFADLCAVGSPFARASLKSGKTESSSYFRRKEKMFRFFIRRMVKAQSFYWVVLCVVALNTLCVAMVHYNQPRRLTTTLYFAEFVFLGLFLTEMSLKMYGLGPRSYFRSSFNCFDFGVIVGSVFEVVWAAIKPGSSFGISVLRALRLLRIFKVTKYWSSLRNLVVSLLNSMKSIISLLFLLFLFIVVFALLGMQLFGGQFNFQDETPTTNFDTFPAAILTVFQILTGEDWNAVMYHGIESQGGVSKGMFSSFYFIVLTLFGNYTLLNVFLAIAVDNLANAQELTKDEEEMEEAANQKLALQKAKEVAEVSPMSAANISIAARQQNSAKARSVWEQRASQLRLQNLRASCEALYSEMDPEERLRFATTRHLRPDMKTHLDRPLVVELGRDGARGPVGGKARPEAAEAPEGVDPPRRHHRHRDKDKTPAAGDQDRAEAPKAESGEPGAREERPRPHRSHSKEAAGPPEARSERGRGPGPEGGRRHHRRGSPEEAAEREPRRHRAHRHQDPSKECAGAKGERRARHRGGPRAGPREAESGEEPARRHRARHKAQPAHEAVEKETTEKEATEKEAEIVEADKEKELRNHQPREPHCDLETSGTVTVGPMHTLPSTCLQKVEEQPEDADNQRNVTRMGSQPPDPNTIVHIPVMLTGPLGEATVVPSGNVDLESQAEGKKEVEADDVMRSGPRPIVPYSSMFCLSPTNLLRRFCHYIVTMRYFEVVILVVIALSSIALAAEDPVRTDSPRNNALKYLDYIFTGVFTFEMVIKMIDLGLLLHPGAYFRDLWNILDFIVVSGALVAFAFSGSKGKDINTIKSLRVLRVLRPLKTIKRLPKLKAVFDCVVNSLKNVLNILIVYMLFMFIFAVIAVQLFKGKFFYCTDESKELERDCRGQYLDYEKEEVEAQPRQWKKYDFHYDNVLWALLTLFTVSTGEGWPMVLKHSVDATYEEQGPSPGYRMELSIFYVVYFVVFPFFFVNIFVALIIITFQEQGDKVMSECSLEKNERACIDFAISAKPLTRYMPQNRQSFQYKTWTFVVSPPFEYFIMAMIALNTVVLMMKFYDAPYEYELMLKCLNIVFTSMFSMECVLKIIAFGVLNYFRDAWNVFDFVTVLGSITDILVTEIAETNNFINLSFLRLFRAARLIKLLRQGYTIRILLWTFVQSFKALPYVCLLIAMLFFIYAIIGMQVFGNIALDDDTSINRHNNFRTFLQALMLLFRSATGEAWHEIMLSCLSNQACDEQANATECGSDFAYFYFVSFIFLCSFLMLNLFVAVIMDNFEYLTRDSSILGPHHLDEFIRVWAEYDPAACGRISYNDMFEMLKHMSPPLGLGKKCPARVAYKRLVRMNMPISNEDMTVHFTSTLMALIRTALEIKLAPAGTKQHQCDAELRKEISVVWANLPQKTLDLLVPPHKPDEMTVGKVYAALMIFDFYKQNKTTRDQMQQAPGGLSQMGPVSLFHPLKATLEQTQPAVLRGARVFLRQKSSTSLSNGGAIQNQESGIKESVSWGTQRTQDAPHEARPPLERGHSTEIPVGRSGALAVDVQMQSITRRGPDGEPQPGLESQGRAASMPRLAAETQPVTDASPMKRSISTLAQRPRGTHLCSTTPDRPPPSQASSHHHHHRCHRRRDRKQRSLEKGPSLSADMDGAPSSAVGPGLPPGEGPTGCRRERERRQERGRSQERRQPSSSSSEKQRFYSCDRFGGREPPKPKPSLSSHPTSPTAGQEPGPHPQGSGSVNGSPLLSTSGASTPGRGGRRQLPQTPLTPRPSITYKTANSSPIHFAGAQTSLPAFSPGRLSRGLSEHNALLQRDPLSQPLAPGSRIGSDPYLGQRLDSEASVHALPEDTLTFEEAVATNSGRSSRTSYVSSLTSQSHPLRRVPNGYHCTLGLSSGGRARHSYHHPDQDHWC
T1 sequence (Q02410 whole entry): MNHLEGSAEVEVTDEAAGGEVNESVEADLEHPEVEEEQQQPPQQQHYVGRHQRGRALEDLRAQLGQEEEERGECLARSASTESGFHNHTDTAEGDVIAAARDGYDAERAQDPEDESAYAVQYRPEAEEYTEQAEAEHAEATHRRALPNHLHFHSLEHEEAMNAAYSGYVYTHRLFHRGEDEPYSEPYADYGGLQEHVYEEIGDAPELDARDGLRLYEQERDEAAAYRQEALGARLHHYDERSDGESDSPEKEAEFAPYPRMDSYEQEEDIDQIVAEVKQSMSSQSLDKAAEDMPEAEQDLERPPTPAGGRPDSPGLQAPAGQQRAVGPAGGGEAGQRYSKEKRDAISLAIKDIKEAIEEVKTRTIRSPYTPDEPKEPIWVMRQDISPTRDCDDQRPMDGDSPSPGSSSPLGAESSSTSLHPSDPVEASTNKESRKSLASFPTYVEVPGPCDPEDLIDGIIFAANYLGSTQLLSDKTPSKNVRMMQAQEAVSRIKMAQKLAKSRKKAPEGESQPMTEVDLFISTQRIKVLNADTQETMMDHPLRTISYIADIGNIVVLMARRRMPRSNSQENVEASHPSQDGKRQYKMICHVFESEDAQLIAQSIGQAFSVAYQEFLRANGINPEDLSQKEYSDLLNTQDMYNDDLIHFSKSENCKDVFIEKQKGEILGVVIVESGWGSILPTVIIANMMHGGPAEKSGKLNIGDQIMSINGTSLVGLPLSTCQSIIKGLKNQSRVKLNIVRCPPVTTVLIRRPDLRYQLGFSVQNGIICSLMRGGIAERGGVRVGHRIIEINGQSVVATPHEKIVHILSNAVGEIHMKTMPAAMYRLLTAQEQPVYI

O=C(NCc1ccco1)c1ccc([N+](=O)[O-])o1
IC50 [1]: 4.6 µM (active) | IC50 [2]: 34.6 µM (active) | EC50 [3]: 0.128 µM (active) | EC50 [4]: > 60 µM (not active) | IC50 (Exodeoxyribonuclease V): 113 µM (inactive) | IC50 [5]: > 39.5 µM (inactive) | CC50 (Vero): 22.8 µM (active)

CCCCCn1nc(-c2ccccc2)c2nc3ccccc3nc21
IC50 (Ephrin type-A receptor 4): 6.11 µM (active) | AC50 (HeLa): > 350 µM (inactive) | AC50 (ORF 73): 56.5 µM (active) | AC50 [6]: 31.7 µM (active) | EC50 [7]: 4.97 µM (active)

CC(C)CCN1CCC[C@H](NC(=O)COc2ccc(F)c(Cl)c2)C1
EC50 [8]: 10 µM (active)

COc1ccc(OC)c(/C=N/NC(=O)CSc2cc(C)nc3c(OC)cccc23)c1
AC50 (Trypsin): 34.3 µM (active) | AC50 (CAAX prenyl protease 1): 6.88 µM (active) | AC50 (CAAX prenyl protease 2): 10.7 µM (active)

COc1cc(N=c2ssnc2Cl)cc(OC)c1OC
IC50 [9]: 2.91 µM (active) | IC50 (Phosphomannomutase 2): > 100 µM (inactive)

O=C(CCCN1C(=O)/C(=C/c2ccc3c(c2)OCO3)SC1=S)Nc1ccc(C(=O)O)c(O)c1
IC50 [10]: 2.09 µM (active) | IC50 [11]: 39.4 µM (active) | IC50 [12]: > 100 µM (inactive) | IC50 [13]: 8.75 µM (active) | IC50 [14]: 73.1 µM (active) | IC50 [15]: > 32 µM (inactive)

O=C(Nc1nc2c(F)cc(F)cc2s1)c1ccc([N+](=O)[O-])o1
EC50 (HEK293 [16]): 12 µM (active) | IC50 (HEK293 [17]): > 20 µM (inactive) | IC50 (HEK293 [18]): > 20 µM (inactive) | IC50 (HEK293 [19]): 15.5 µM (inactive) | IC50 [20]: 7.18 µM (active) | IC50 [21]: 4.95 µM (active) | EC50 [7]: > 53 µM (inactive) | IC50 [22]: > 20 µM (inactive) | IC50 (HEK293 [23]): > 20 µM (inactive)

CCCS(=O)(=O)N1CCCC(C(=O)NCCCOCC)C1 (centres undefined)
AC50 (Cytochrome P450 2D6): inconclusive
